Source: US9271978B2 (Zenith Epigenetics Corp., priority 2012, dated 2016)
Structures can show the parent of a compound that is named as a salt.

target: T1, Brd4 bromodomain 1 (BRD4(1)) (Homo sapiens, UniProt O60885); experiment: Inhibition of tetra-acetylated histone H4 binding to Brd4 bromodomain 1 (TR-FRET); design: key: Active: Compounds with an IC50 value less than 30 μM were deemed to be active.; Not Active: Compounds with an IC50 value less than 30 μM were deemed to be active; details: tetra-acetylated histone H4 peptide, active = IC50 <30 μM
T1 construct: Illustrative results with the first bromodomain of Brd4; made in house; host or cells: E. coli BL21 (DE3)
Method: Proteins were cloned and overexpressed with a N-terminal 6×His tag, then purified by nickel affinity followed by size exclusion chromatography. Briefly, E. coli BL21 (DE3) cells were transformed with a recombinant expression vector encoding N-terminally Nickel affinity tagged bromodomains from Brd2, Brd3, Brd4. Cell cultures were incubated at 37° C. with shaking to the appropriate density and induced overnight with IPTG. The supernatant of lysed cells was loaded onto Ni-IDA column for purification. Eluted protein is pooled, concentrated and further purified by size exclusion chromatography. Fractions representing monomeric protein were pooled, concentrated, aliquoted, and frozen at −80° C. for use in subsequent experiments.
Binding of tetra-acetylated histone H4 and BET bromodomains was confirmed by a Time Resolved Fluorescence Resonance Energy Transfer (TR-FRET) method. N-terminally His-tagged bromodomains (200 nM) and biotinylated tetra-acetylated histone H4 peptide (25-50 nM, Millipore) were incubated in the presence of Europium Cryptate-labeled streptavidin (Cisbio Cat. #610SAKLB) and XL665-labeled monoclonal anti-His antibody (Cisbio Cat. #61HISXLB) in a white 96 well microtiter plate (Greiner). For inhibition assays, serially diluted test compound was added to these reactions in a 0.2% final concentration of DMSO. Final buffer concentrations were 30 mM HEPES pH 7.4, 30 mM NaCl, 0.3 mM CHAPS, 20 mM phosphate pH 7.0, 320 mM KF, 0.08% BSA). After a 2-h incubation at room temperature, the fluorescence by FRET was measured at 665 and 620 nm by a SynergyH4 plate reader (Biotek). Illustrative results with the first bromodomain of Brd4 and the second bromodomain of Brd2 are shown below. The binding inhibitory activity was shown by a decrease in 665 nm fluorescence relative to 620 nm. IC50 values were determined from a dose response curve.

Structure (SMILES) | FRET activity (IC50 <30 μM) BRD4(1)
Cc1noc(C)c1-c1cc(N2CCN(C)CC2)c(=O)n(Cc2ccccc2)c1 [Example 153, 1-Benzyl-5-(3,5-dimethylisoxazol-4-yl)-3-(4-methylpiperazin-1-yl)pyridin-2(1H)-one Hydrochloride] | Active
COc1cc(=O)n(Cc2ccccc2)cc1-c1c(C)noc1C [Example 154, 1-Benzyl-5-(3,5-dimethylisoxazol-4-yl)-4-methoxypyridin-2(1H)-one] | Active
Cc1noc(C)c1-c1cc(Nc2ccc(F)cc2)c(=O)n(Cc2ccccc2)c1 [Example 156, 1-Benzyl-5-(3,5-dimethylisoxazol-4-yl)-3-((4-fluorophenyl)amino)pyridin-2(1H)-one] | Active
Cc1onc(CO)c1-c1ccc(=O)n(Cc2ccc(Cl)cc2)c1 [Example 159, 1-(4-Chlorobenzyl)-5-(3-(hydroxymethyl)-5-methylisoxazol-4-yl)pyridin-2(1H)-one] | Active
Cc1noc(C)c1-c1cc(N2CCNCC2)c(=O)n(Cc2ccccc2)c1 [Example 161, 1-Benzyl-5-(3,5-dimethylisoxazol-4-yl)-3-(piperazin-1-yl)pyridin-2(1H)-one Hydrochloride] | Not Active
CC(c1ccccc1)n1nc(-c2ccc(O)cc2)ccc1=O (stereo not drawn) [Example 178, 6-(4-hydroxyphenyl)-2-(1-phenylethyl)pyridazin-3(2H)-one] | Active
Cc1noc(C)c1-c1cc(Nc2ccncc2)c(=O)n(Cc2ccccc2)c1 [Example 195, 1-benzyl-5-(3,5-dimethylisoxazol-4-yl)-3-(pyridin-4-ylamino)pyridin-2(1H)-one] | Active
Cc1nsc(C)c1-c1ccc(=O)n(Cc2ccccc2)c1 [Example 196, 1-benzyl-5-(3,5-dimethylisothiazol-4-yl)pyridin-2(1H)-one] | Active
Cc1nnc(C)n1-c1ccc(=O)n(Cc2ccc(Cl)cc2)c1 [Example 197, 1-(4-chlorobenzyl)-5-(3,5-dimethyl-4H-1,2,4-triazol-4-yl)pyridin-2(1H)-one] | Not Active
COC(=O)c1noc(C)c1-c1ccc(=O)n(Cc2ccc(Cl)cc2)c1 [Example 199, Methyl 4-(1-(4-chlorobenzyl)-6-oxo-1,6-dihydropyridin-3-yl)-5-methylisoxazole-3-carboxylate] | Not Active
Cc1noc(C)c1-c1cc(NS(C)(=O)=O)c(=O)n(Cc2ccccc2)c1 [Example 200, N-(1-Benzyl-5-(3,5-dimethylisoxazol-4-yl)-2-oxo-1,2-dihydropyridin-3-yl)methanesulfonamide] | Not Active
Cc1noc(C)c1CNc1ccc(=O)n(Cc2ccccc2)n1 [Example 201, 2-Benzyl-6-(((3,5-dimethylisoxazol-4-yl)methyl)amino)pyridazin-3(2H)-one] | Not Active
Cc1onc(C(N)=O)c1-c1ccc(=O)n(Cc2ccc(Cl)cc2)c1 [Example 202, 4-(1-(4-Chlorobenzyl)-6-oxo-1,6-dihydropyridin-3-yl)-5-methylisoxazole-3-carboxamide] | Active
Cc1noc(C)c1-c1cc(-n2ccnc2)c(=O)n(Cc2ccccc2)c1 [Example 204, 1-benzyl-5-(3,5-dimethylisoxazol-4-yl)-3-(1H-imidazol-1-yl)pyridin-2(1H)-one] | Active
Cc1noc(C)c1-c1cc(N)c(=O)n(C)c1 [Example 224, 3-Amino-5-(3,5-dimethylisoxazol-4-yl)-1-methylpyridin-2(1H)-one] | Active
Cc1onc(C(=O)O)c1-c1ccc(=O)n(Cc2ccc(Cl)cc2)c1 [Example 225, 4-(1-(4-Chlorobenzyl)-6-oxo-1,6-dihydropyridin-3-yl)-5-methylisoxazole-3-carboxylic acid] | Not Active
Cc1noc(C)c1-c1cc(C(=O)O)c(=O)n(Cc2ccccc2)c1 [Example 229, 1-Benzyl-5-(3,5-dimethylisoxazol-4-yl)-2-oxo-1,2-dihydropyridine-3-carboxylic acid] | Active

Structure (SMILES) | FRET activity (IC50 <30 μM) BRD4(1)
Cc1noc(C)c1-c1cc(Nc2ccc(C#N)nc2)c(=O)n(Cc2ccccc2)c1 [Example 232, 5-((1-benzyl-5-(3,5-dimethylisoxazol-4-yl)-2-oxo-1,2-dihydropyridin-3-yl)amino)picolinonitrile] | Active
COc1ccc(Nc2cc(-c3c(C)noc3C)cn(Cc3ccccc3)c2=O)cn1 [Example 234, 1-benzyl-5-(3,5-dimethylisoxazol-4-yl)-3-((6-methoxypyridin-3-yl)amino)pyridin-2(1H)-one] | Active
Cc1noc(C)c1-c1cc(Nc2cnccn2)c(=O)n(Cc2ccccc2)c1 [Example 235, 1-benzyl-5-(3,5-dimethylisoxazol-4-yl)-3-(pyrazin-2-ylamino)pyridin-2(1H)-one] | Active
Cc1noc(C)c1-c1cc(Nc2cncnc2)c(=O)n(Cc2ccccc2)c1 [Example 236, 1-benzyl-5-(3,5-dimethylisoxazol-4-yl)-3-(pyrimidin-5-ylamino)pyridin-2(1H)-one] | Active
Cc1noc(C)c1-c1cc(NC2CCNC2)c(=O)n(Cc2ccccc2)c1 (stereo not drawn) [Example 239, 1-benzyl-5-(3,5-dimethylisoxazol-4-yl)-3-(pyrrolidin-3-ylamino)pyridin-2(1H)-one] | Active
Cc1noc(C)c1-c1cc(NCC(F)(F)F)c(=O)n(Cc2ccc(Cl)cc2)c1 [Example 243, 1-(4-Chlorobenzyl)-5-(3,5-dimethylisoxazol-4-yl)-3-((2,2,2-trifluoroethyl)amino)pyridin-2(1H)-one] | Active
Cc1ccc(Nc2cc(-c3c(C)noc3C)cn(Cc3ccccc3)c2=O)cn1 [Example 245, 1-benzyl-5-(3,5-dimethylisoxazol-4-yl)-3-((6-methylpyridin-3-yl)amino)pyridin-2(1H)-one] | Active
Cc1noc(C)c1-c1cc(Nc2cccnc2)c(=O)n(Cc2ccccc2)n1 [Example 248, 2-benzyl-6-(3,5-dimethylisoxazol-4-yl)-4-(pyridin-3-ylamino)pyridazin-3(2H)-one] | Active
CON(C)C(=O)c1noc(C)c1-c1ccc(=O)n(Cc2ccccc2)c1 [Example 249, 4-(1-benzyl-6-oxo-1,6-dihydropyridin-3-yl)-N-methoxy-N,5-dimethylisoxazole-3-carboxamide] | Not Active
Cc1noc(C)c1-c1cc(N)c(=O)n(Cc2ccncc2Cl)c1 [Example 253] | Active
Cc1noc(C)c1-c1cc(N)c(=O)n(Cc2cccc3c2OCO3)c1 [Example 257, 3-amino-1-(benzo[d][1,3]dioxol-4-ylmethyl)-5-(3,5-dimethylisoxazol-4-yl)pyridin-2(1H)-one] | Active
COC(=O)c1onc(C)c1-c1ccc(=O)n(Cc2ccc(Cl)cc2)c1 [Example 259, methyl 4-(1-(4-chlorobenzyl)-6-oxo-1,6-dihydropyridin-3-yl)-3-methylisoxazole-5-carboxylate] | Not Active
Cc1noc(C(=O)O)c1-c1ccc(=O)n(Cc2ccc(Cl)cc2)c1 [Example 260, 4-(1-(4-chlorobenzyl)-6-oxo-1,6-dihydropyridin-3-yl)-3-methylisoxazole-5-carboxylic acid] | Not Active
CNC(=O)c1onc(C)c1-c1ccc(=O)n(Cc2ccc(Cl)cc2)c1 [Example 265, 4-(1-(4-chlorobenzyl)-6-oxo-1,6-dihydropyridin-3-yl)-N,3-dimethylisoxazole-5-carboxamide] | Not Active
Cc1noc(C)c1-c1cc(CN)c(=O)n(Cc2ccccc2)c1 [Example 266, 3-(Aminomethyl)-1-benzyl-5-(3,5-dimethylisoxazol-4-yl)pyridin-2(1H)-one] | Not Active
O=C1CC(c2ccc(=O)n(Cc3ccccc3)c2)CN1 (stereo not drawn) [Example 268, 1-Benzyl-5-(5-oxopyrrolidin-3-yl)pyridin-2(1H)-one] | Not Active
